Values after ≈ are worked out from the molar mass of the structure shown. Where two headings read alike, the source gives them in different places.
How the values were obtained:
[1] = Metabolic stability in mouse liver microsomes; type: in vitro ADME; details: NADPH independent metabolism; for half-life: mouse
Source text: (§1) Selected compounds were screened for aqueous solubility, transit performance in MDCK-mdr1 cell
(§2) lines for permeability, and metabolic stability in human and mouse liver microsomes as a measure of
(§3) ADME studies reported in this work were independently performed by GVK Biosciences (Hyderabad,
(§4) India) and/or Cyprotex (Macclesfield, UK).
(§5) Cyptotex, UK. See: https://www.cyprotex.com/admepk
(§6) GVK Biosciences, India. See: https://www.gvkbio.com/discovery-services/biology-services/dmpk-
(§7) The MDCK-mdr1 cell line used in these experiments was supplied to GVK Biosciences from SOLVO

[2] = tested on: Wnt/β-catenin signaling pathway TCF/LEF reporter (luciferase) HEK293 cell line with exogenous Wnt3a and NOTUM; assay: cells; type: cell-based; details: for EC50: Wnt3a 100 ng mL^–1, NOTUM 500 ng mL^–1, n = 4, read-out: TCF/LEF reporter EC50, activation of Wnt signaling via inhibition of NOTUM
[3] = Aqueous thermodynamic solubility; type: physicochemical; details: aqueous medium (not further specified), thermodynamic from solid
Source text: as §1, §2, §3, §4, §5, §6, §7

[4] = MDCK-mdr1 cell permeability; type: in vitro ADME; details: dog
Source text: as §1, §2, §3, §4, §5, §6, §7

MDCK-mdr1 cell line = assay: MDCK-mdr1 cell permeability; type: in vitro ADME; details: MDCK-mdr1
Source text: as §1, §2, §3, §4, §5, §6, §7

[5] = Metabolic stability in human liver microsomes; type: in vitro ADME; details: NADPH independent metabolism
Source text: as §1, §2, §3, §4, §5, §6, §7

[6] = Hydrolytic stability in buffer systems; type: physicochemical; details: three buffer systems (pH 4, 7.4, 10), time points up to 18 h, UPLC-MS

Compound `Cc1ccccc1OCC(=O)Nc1cccnc1` [Compound 3, 2-(2-methylphenoxy)-N-(pyridine-3-yl)acetamide] has a half-life ([1]; liver microsomes) of 1.1 min.
For `Cc1ccccc1OCC(=O)Nc1cnccn1` [Compound 22], the “MLM (t1/2 min)” value [1] was “Not detected ^a”.
For `Cc1ccccc1OCC(=O)Nc1ccc2nccnc2c1` [Compound 27], the “Response in TCF/LEF reporter assay” value [2] was “supramaximal response”.
In the case of `Cc1ccccc1OCC(=O)Nc1ccc2cnn(C)c2c1` [Compound 34], the solubility thermodynamic [3] is reported as 2 µg/mL (≈ 6.77 µM), the Papp A→B ([4]; MDCK-mdr1, AB) is reported as 5.1 ×10⁻⁶ cm/s and the Papp B→A ([4]; MDCK-mdr1, BA) is reported as 6.6 ×10⁻⁶ cm/s. For the same compound, the P-gp mediated efflux (MDCK-mdr1 cell line) was “no evidence of P-gp mediated efflux”, the half-life [5] was 11.6 min and the “MLM (t1/2 min)” value [1] was “Not detected ^a”. The Hydrolytic stability [6] was “only parent was detected”.
For `Cc1ccccc1OCC(=O)Nc1ccc2cn(C)nc2c1` [Compound 35], the “Response in TCF/LEF reporter assay” value ([2]; dual activity: NOTUM inhibition and stabilizers of luciferase enzyme) was “supramaximal response”.
Work on `CCn1cc2ccc(NC(=O)COc3ccccc3C)cc2n1` [Compound 37] yielded an EC50 ([2]; Homo sapiens, HEK293) of 386 ± 199 nM.
Compound `Cc1ccccc1OCC(=O)Nc1ccc2cn(C(C)C)nc2c1` [Compound 38] has an EC50 ([2]; Homo sapiens, HEK293) of about 934 nM, an inhibition at 3 µM ([2]; Homo sapiens, HEK293, at 3 μM) of 60% and a half-life [5] of 5.1 min. The half-life ([1]; liver microsomes) was 5.7 min.
For `Cc1ccccc1OCC(=O)Nc1ccc2nn[nH]c2c1` [Compound 39], the half-life ([1]; liver microsomes) was 1.8 min.
`Cc1ccccc1OCC(=O)Nc1ccc2cnccc2c1` [Compound 45] showed a half-life [5] of 12.1 min and a half-life ([1]; liver microsomes) of 11 min.
Compound `O=C(COc1ccccc1Cl)Nc1ccc2cnccc2c1` [Compound 50] has a half-life ([1]; liver microsomes) of 3.3 min.
In the case of `Cc1ccccc1N(C)CC(=O)Nc1ccc2cnn(C)c2c1` [Compound 53], the half-life ([1]; mouse liver microsomes) is reported as 5.2 min.
For `Cc1ccccc1OCC(=O)N1CCc2ccccc2C1` [Compound 54], the “MLM (t1/2 min)” value [1] was “Not detected ^a”.

— PMC6727465, “Discovery of 2-phenoxyacetamides as inhibitors of the Wnt-depalmitoleating enzyme NOTUM from an X-ray fragment screen” (MedChemComm, 2019)
